Consider 27 compounds from ChEMBL document CHEMBL2364335, “Structure-activity relationship data for chemical series of achiral agonists of the ghrelin (growth hormone secretagogue) receptor (Supplementary Bioactivity Data for publication CHEMBL1140573)”.

For the assay, the target named is Growth hormone secretagogue receptor type 1 (Homo sapiens, UniProt Q92847). Put plainly: SUPPLEMENTARY: Agonist activity at GSHR by FLIPR assay. Same assay as CHEMBL941945. The format is functional.
Chain of Growth hormone secretagogue receptor type 1 (Q92847 whole entry): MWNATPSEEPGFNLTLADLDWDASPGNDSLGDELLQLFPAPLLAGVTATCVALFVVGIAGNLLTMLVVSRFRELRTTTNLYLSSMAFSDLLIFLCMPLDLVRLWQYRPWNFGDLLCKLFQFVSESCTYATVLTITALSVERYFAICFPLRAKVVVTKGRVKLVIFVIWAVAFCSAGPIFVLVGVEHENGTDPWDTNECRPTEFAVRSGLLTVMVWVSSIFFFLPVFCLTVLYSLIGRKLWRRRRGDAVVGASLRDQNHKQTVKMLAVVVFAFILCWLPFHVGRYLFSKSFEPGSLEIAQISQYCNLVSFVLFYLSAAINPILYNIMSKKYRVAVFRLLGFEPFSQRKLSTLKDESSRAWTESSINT
With `COc1ccc(N2C[C@@H](C)N[C@@H](C)C2)cc1NS(=O)(=O)c1ccc(-c2ccco2)nc1`, the EC50 is 0.0158 µM. The same measure for `COc1ccc(N2C[C@@H](C)N[C@@H](C)C2)cc1NS(=O)(=O)c1ccc(-c2cnccn2)cc1`: 0.0316 µM; for `COc1ccc(N2C[C@@H](C)N[C@@H](C)C2)cc1NS(=O)(=O)c1ccc(-c2ccc(C)o2)cc1Cl`: 0.000316 µM; for `COc1cc(-c2cc(C)cs2)ccc1S(=O)(=O)Nc1cccc(N2C[C@@H](C)N[C@@H](C)C2)c1`: 0.00631 µM. In the case of `COc1cc(-c2ccco2)ccc1S(=O)(=O)Nc1cccc(N2C[C@@H](C)N[C@@H](C)C2)c1`, the response was half-maximal at 0.02 µM (EC50).

`COc1cc(-c2cccs2)ccc1S(=O)(=O)Nc1cccc(N2C[C@@H](C)N[C@@H](C)C2)c1` showed an EC50 of 0.02 µM. The same measure for `COc1ccc(N2C[C@@H](C)N[C@@H](C)C2)cc1NS(=O)(=O)c1ccc(-c2ccco2)cc1Cl`: 0.000501 µM. Under `COc1ccc(N2C[C@@H](C)N[C@@H](C)C2)cc1NS(=O)(=O)c1ccc(-c2ccc(C)s2)c(F)c1` stands 0.00398 µM; under `COc1ccc(N2C[C@@H](C)N[C@@H](C)C2)cc1NS(=O)(=O)c1ccc(-c2cccs2)nc1`, 0.0501 µM. Under `C[C@@H]1CN(c2ccc(Cl)c(NS(=O)(=O)c3ccc(-c4ccco4)cc3)c2)C[C@H](C)N1` stands 0.00158 µM. Take `COc1ccc(N2C[C@@H](C)N[C@@H](C)C2)cc1NS(=O)(=O)c1cc(F)c(-c2ccco2)cc1F`: the EC50 is 0.0158 µM.

As to `C[C@@H]1CN(c2ccc(Cl)c(NS(=O)(=O)c3ccc(-c4ccccc4F)s3)c2)C[C@H](C)N1`, the response was half-maximal at 0.01 µM (EC50).

For `COc1ccc(N2C[C@@H](C)N[C@@H](C)C2)cc1NS(=O)(=O)c1ccc(-c2ccc(C)o2)nc1`, the EC50 was 0.00794 µM. Under `COc1ccc(N2C[C@@H](C)N[C@@H](C)C2)cc1NS(=O)(=O)c1ccc(-c2cc(C)cs2)nc1` stands 0.01 µM.

In turn, `COc1ccc(N2C[C@@H](C)N[C@@H](C)C2)cc1NS(=O)(=O)c1ccc(-c2csc(C)c2)c(F)c1` showed an EC50 of 0.002 µM. The same measure for `COc1ccc(N2C[C@@H](C)N[C@@H](C)C2)cc1NS(=O)(=O)c1ccc(-c2csc(C)c2)cc1F`: 0.00251 µM; for `COc1ccc(N2C[C@@H](C)N[C@@H](C)C2)cc1NS(=O)(=O)c1ccc(-c2csc(C)c2)cc1`: 0.00398 µM. The same measure for `COc1ccc(N2C[C@@H](C)N[C@@H](C)C2)cc1NS(=O)(=O)c1ccc(-c2ncccn2)cc1`: 0.0126 µM; for `COc1ccc(N2C[C@@H](C)N[C@@H](C)C2)cc1NS(=O)(=O)c1ccc(Cl)c2ccccc12`: 0.0501 µM; for `COc1ccc(N2C[C@@H](C)N[C@@H](C)C2)cc1NS(=O)(=O)c1ccc(-c2ccc(C)o2)cn1`: 0.00316 µM. The same measure for `COc1ccc(N2C[C@@H](C)N(C)[C@@H](C)C2)cc1NS(=O)(=O)c1ccc(-c2cccs2)cc1`: 0.0126 µM. Turning to `Cc1ccc(-c2ccc(S(=O)(=O)Nc3cc(N4C[C@@H](C)N[C@@H](C)C4)ccc3O)cc2)o1`, the concentration for a half-maximal effect (EC50) is 0.00501 µM.

As for `C[C@@H]1CN(c2ccc(O)c(NS(=O)(=O)c3ccc(-c4ccco4)cc3)c2)C[C@H](C)N1`, the EC50 was 0.0158 µM. In turn, `COc1ccc(N2CCN[C@@H](C)C2)cc1NS(=O)(=O)c1ccc(-c2cccs2)cc1` had an EC50 of 0.158 µM. Under `COc1ccc(N2CCN[C@H](C)C2)cc1NS(=O)(=O)c1ccc(-c2cccs2)cc1` stands 0.0316 µM. The same measure for `Cc1ccc(-c2ccc(S(=O)(=O)Nc3cc(N4C[C@@H](C)N[C@@H](C)C4)ccc3O)cc2F)o1`: 0.00316 µM. The same measure for `C[C@@H]1CN(c2ccc(O)c(NS(=O)(=O)c3ccc(-c4ccccc4F)s3)c2)C[C@H](C)N1`: 0.00631 µM.
